Measurements from ChEMBL document CHEMBL1130754, “Structure activity relationship study of known inhibitors of the enzyme 5 alpha-reductase (5AR)” (Bioorg Med Chem Lett, 1998).

Key:
[1] = target: T1, Steroid 5-alpha-reductase (Rattus norvegicus, UniProt P24008+P31214); test: Compound was tested for the inhibitory activity against Steroid 5-alpha-reductase in rat
T1 sequence (P24008 whole entry): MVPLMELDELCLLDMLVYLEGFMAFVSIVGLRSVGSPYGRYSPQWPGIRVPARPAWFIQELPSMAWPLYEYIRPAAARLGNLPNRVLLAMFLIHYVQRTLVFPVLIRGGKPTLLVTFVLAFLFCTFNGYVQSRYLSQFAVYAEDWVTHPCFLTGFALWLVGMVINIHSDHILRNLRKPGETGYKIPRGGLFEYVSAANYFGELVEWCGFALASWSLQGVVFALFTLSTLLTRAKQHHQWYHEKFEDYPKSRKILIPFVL
T1 sequence (P31214 whole entry): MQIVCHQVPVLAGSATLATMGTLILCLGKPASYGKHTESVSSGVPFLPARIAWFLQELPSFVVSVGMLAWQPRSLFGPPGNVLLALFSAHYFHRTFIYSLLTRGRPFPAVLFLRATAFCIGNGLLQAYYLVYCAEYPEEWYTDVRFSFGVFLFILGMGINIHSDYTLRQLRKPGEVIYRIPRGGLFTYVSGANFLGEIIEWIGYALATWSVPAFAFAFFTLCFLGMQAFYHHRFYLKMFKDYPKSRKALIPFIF

[2] = target: T2, 3-oxo-5-alpha-steroid 4-dehydrogenase 1 (Rattus norvegicus, UniProt P24008); test: Compound was tested for the inhibitory activity against Steroid 5-alpha-reductase type 1 in rat
T2 sequence (P24008 whole entry): T1 sequence (P24008 whole entry)

IC50 [1] [nM]	IC50 [2] [nM]	Compound
0.13		CCCCCCCCNC(=O)[C@H]1CCC2C3CCC4NC(=O)CC[C@]4(C)C3CC[C@@]21C (some centres undefined)
6.3		CC(C)(C)NC(=O)[C@H]1CCC2C3CCC4NC(=O)CC[C@]4(C)C3CC[C@@]21C (some centres undefined)
	4.2	CC(C)(C)NC(=O)[C@H]1CC[C@H]2[C@@H]3CC[C@H]4NC(=O)C=C[C@]4(C)[C@H]3CC[C@]12C [FINASTERIDE]

Compound	IC50 [1] [nM]	IC50 [2] [nM]
C[C@]12CCC(=O)C=C1CC[C@@H]1[C@@H]2CC[C@]2(C)C(c3cccnc3)=CC[C@@H]12	10000	
